Entries after “also recorded” stand apart in the source; their conditions may differ. Where two headings read alike, the source gives them in different places.

This is an account of results in patent publication US20050256040A1, “Artificially designed pore-forming proteins with anti-tumor effects” (Buck Institute, priority 2004, published 2005).

The subject of data set [1] is H358 lung carcinoma xenografts. Put plainly: Anti-tumor activity, H358 lung carcinoma xenografts in nude mice. It counts as in vivo, nude/nude Balb/c mice. The text has this:
(§1) Data are shown for human PC3-derived prostate carcinoma and H358 lung carcinoma. Tumor cells were implanted on the flank at the start of the experiments. Mice were divided in similar groups based on matched tumor volumes at the start of the experiment (open circles).
(§2) MDA-MB-435-, KS1767-, PC-3-, and H358-derived human tumor xenografts were established in 2-month-old female or male (according to the tumor type), nude/nude Balb/c mice (Jackson Labs, Bar Harbor, Me.) by administering […] per mouse in a 200 μl volume of serum-free Dulbecco's modified Eagle's medium into the mammary fat pad or on the flank (see Ellerby, et al. (1999) Nat. Med. 5, 1032-1038). The mice were anesthetized with Avertin as described (see Ellerby, et al. (1999) supra.). SGP was administered directly into the center of the tumor mass at a concentration of 100 μM or 1 mM given slowly in 5 μl increments, for a total volume of 40 μl. Measurements of tumors were taken by caliper under anesthesia and used to calculate tumor volume (see Ellerby, et al. (1999) supra.). Animal experimentation was reviewed and approved by the Institutional Animal Care and Use Committee.

For data set [2] the following is noted: cited from earlier work; for ability to disrupt synthetic membranes: Matsumoto et al. 2001.
Data set [3] has as its system KS1767 cells. It counts as cell-based. To be noted: for CC50: KS 1767 cells, read-out: LC50 at 30 min; for toxicity to mammalian cultured cells compared with SGP: Table I cell types. How it is done: All cell lines were obtained commercially. The Kaposi's sarcoma-derived cell line KS1767 and the breast carcinoma cell line MDA-MB-435 have been described previously (see, for example, Herndier, et al. (1994) Aids 8, 575-581; Reisbach, et al. (1982) Anticancer Res. 2, 257-260; and Ellerby, et al. (1999) Nat. Med. 5, 1032-1038) and were cultured in 10% fetal bovine serum/Dulbecco's modified Eagle's medium, containing antibiotics.
(§3) To evaluate the effects of SGP on cell membranes multiple human cell lines of different origins were treated (see Table I, which presents a comparison of LC50 data for SGP, SGP-L, and SGP-E on a variety of cultured human cell types).
(§4) Cell viability was determined by morphology (see Ellerby, et al. (1999) Nat. Med. 5, 1032-1038; and Ellerby, et al. (1997) J. Neurosci. 17, 6165-6178). For viability assays, KS1767 cells were incubated with the concentrations of SGP, SGP-L, SGP-E, or control peptides indicated in the figures and in Table I. Briefly, at the given time points, cell culture medium was aspirated from adherent cells. Cells were then gently washed once with PBS at 37° C. A 20-fold dilution of the dye mixture (100 μg/ml acridine orange and 100 μg/ml ethidium bromide) in PBS was then gently pipetted on the cells and viewed on an inverted microscope (Nikon TE 300). […] Percent viability was calculated relative to untreated cells.

For data set [4], the system named is KS1767 cells. The experiment in a line: Matrigel / polymeric fibronectin assay of cell viability. The note with it: for effect on KS1767 cell layer: regardless of the presence of matrigel. It counts as cell-based, human. The protocol: To determine the mechanisms responsible for selective anti-tumor activity of SGP in vivo, a matrigel assay (to mimic extracellular matrix) was developed. Cell viability was determined by morphology (see Ellerby, et al. (1999) supra.; and Ellerby, et al. (1997) supra.). KS1767 cells were incubated with SGP at 1 mM in the presence or absence of matrigel or polymeric fibronectin (sFN). The fibronectin polymer was produced as previously described (see Pasqualini, et al. (1996) Nature Med. 2, 1197-1203). Briefly, cell culture medium was aspirated from adherent cells. Cells were then coated with matrigel (gently pipetted on each well to completely coat the entire cell layer), or the fibronectin polymer, and incubated at 37° C. for 10 min. SGP was added and the cells were viewed on an inverted microscope (Nikon TE 300). KS1767 cells were also exposed to doxorubicin (20 μg/well) or SGP in the presence or absense of matrigel for 24 h. Cell viability (%) was evaluated after no treatment (medium or matrigel alone), incubation with SGP or doxorubicin. Cell death was evaluated morphologically (see Ellerby, et al. (1999) supra.; and Ellerby, et al. (1997) supra.), and cell viability was compared relative to untreated controls (no matrigel) or absence of SGP.

The nature of data set [5]: Cell viability LC50, cell line not given in Table I. Type of data set: cell-based. To be noted: for CC50: cell line cell empty (row under KS 1767), read-out: LC50 at 30 min. How it is done:
as §3, §4

The nature of data set [6]: Cell viability LC50, 293 cells. Type of data set: cell-based. To be noted: human, 293 cells (human kidney cells). The protocol:
as §3, §4

The nature of data set [7]: Cell viability LC50, HPAEC cells. The note with it: human, HPAEC (Human Pulmonary Artery Endothelial Cells). Type of data set: cell-based. The protocol:
as §3, §4

Data set [8] concerns human MDA-MB-435-derived breast carcinoma xenografts. Put plainly: Anti-tumor activity, MDA-MB-435 breast carcinoma xenografts in nude mice. The note with it: for tumor appearance: 4 weekly treatments at 40 μl/week, starting volume 100 mm^3. Type of data set: in vivo, nude/nude Balb/c mice. The protocol:
as §2
In the first set of experiments, tumors were allowed to form after injection of a breast carcinoma cell line (MDA-MD-435) and then treated with local injections of SGP. […] Starting tumor volumes ranged from about 100 mm^3 to large sizes of about 600 mm^3. Tumor-bearing mice were given four weekly treatments of PBS, or 100 μM or 1 mM SGP (40 μl/treatment given in 5 μl increments). After a 4-week period without treatment, the tumor volumes were measured at 8 weeks. The average tumor volume at the end of the experiment in the SGP-treated groups was […] than the average volume seen in the PBS-treated group (FIG. 3A). There was no difference between the average tumor volumes of the 2 SGP treatment groups. Mice treated with SGP remained tumor-free for up to 4 months after tumor implantation, before being euthanized for histological evaluation. These observations indicate that both primary tumor growth (FIG. 4) and metastases were inhibited. […] By successfully treating a large number of mice and testing the effects of SGP on several different tumor xenograft models (including carcinomas, sarcomas, and melanomas), the therapeutic properties of SGP were firmly established. […] It was also evaluated whether SGP produced adverse side effects such as necrosis when injected under normal skin.
MDA-MB-435-derived breast carcinoma and KS1767-derived Kaposi sarcoma xenografts and organs were removed, fixed in Bouin solution, embedded in paraffin for preparation of tissue sections, and stained with hematoxylin and eosin (see Ellerby, et al. (1999) supra.).

For data set [9], the system named is normal skin. Put plainly: Skin toxicity in nude mice. It counts as in vivo. To be noted: 100 μM, injected sub-cutaneously or intradermally under normal skin. The protocol: 2-month-old female nude mice (Jackson Labs) were anesthetized with Avertin. 10 μl of 100 μM SGP or PBS was injected into the skin. The injected areas were monitored for 2 weeks.
The nature of data set [10]: Cell viability LC50, CADMEC cells. It counts as cell-based, human. To be noted: human. How it is done:
as §3, §4

The subject of data set [11] is human PC3-derived prostate carcinoma xenografts. Put plainly: Anti-tumor activity, PC-3 prostate carcinoma xenografts in nude mice. It counts as in vivo, nude/nude Balb/c mice. The note with it: PC-3 tumors, 10 weeks.
Excerpt: as §1, §2

Data set [12] can be described thus: Cell viability LC50, HUVEC cells. Type of data set: cell-based. The note with it: human, HUVEC (Human Umbilical Cord Vascular Endothelial Cells). How it is done: as §3, §4
Data set [13] has as its system CADMEC = Cell Applications Dermal Microvessel Endothelial Cells. Put plainly: Cell viability LC50, CADMEC cells. It counts as cell-based, human. The note with it: read-out: LC50 at 30 min. The protocol:
as §3, §4

For the molecule “Ac-AAAAAAWAAAAGPNGLYLKKKLLKKLLKLLGNPGLKLYKKLLKKLLLKLGNPGLLKLYKKLLKKLLKLL-OH [SGP, small globular protein]”, the “tumor volume compared with PBS-treated tumors” value is given as “smaller than control PBS-treated tumors” in data set [1] (H358 tumors, 9 weeks) and “smaller than control PBS-treated tumors” in [11]. For the same molecule, the tumor appearance entry was “have disappeared” in [1] (after 6 weekly treatments at 40 μl/week, FIG. 5C); “flattened and virtually disappeared” in [8] (100 μM); “flattened and virtually disappeared” in data set [8] (1 mM). In [2] (Lee et al. 1997), the “pore size (conductance) in synthetic bilayers” value is 14 pS. The “effect on KS1767 cells” value is “classic morphological signs of apoptosis” in [3] (3 μM, 24 h); “extremely rapid non-necrotic, non-apoptotic cell death” in [3] (10 μM, within 60 s); “necrosis” in data set [3] (10 μM, within 60 min); “induction of apoptosis” in data set [3] (below 5 μM, over 24-hour period, confirmed by caspase-3 activation assay); “remain unaffected” in data set [4] (1 mM, in the presence of matrigel); “decreases cell viability” in data set [4] (1 mM, without matrigel). Also, the “concentration affecting tumor derived cells as well as normal cells” value in data set [3] (cultured cells, tumor derived and normal) was roughly 3 µM. For the same molecule, the “effect on KS1767 cell viability” value in [4] (1 mM, in the presence of polymeric fibronectin (sFN)) is “ineffective; also recorded: remain unaffected”. Also, the “SGP activity in the presence of fibronectin alone” value in [4] (fibronectin alone (not polymeric), control) is “did not prevent SGP activity”. For the same molecule, the CC50 at 30 min in data set [5] (human) is 4 µM; in data set [6], 5 µM; in data set [7] it was 5 µM; in data set [10] it was 5 µM; in data set [12], 7 µM. Also, the “histopathology of tumor xenografts” value in data set [8] (100 μM, harvested at 8 weeks after treatment initiation) was “widespread cell death; also recorded: extensive apoptosis”. The “difference between average tumor volumes of 100 μM and 1 mM groups” value in data set [8] (8 weeks) is “no difference”. Moreover, in [8] (SGP-treated mice), the “histological analysis of the major organs” value was “no overt pathology”. In addition, in data set [8] (before being euthanized for histological evaluation), the “time mice remained tumor-free after tumor implantation” value is reported as “up to 4 months”. Further, in data set [8] (four weekly intratumoral treatments, 100 μM or 1 mM, 40 μl, measured at 8 weeks), the “tumor volume compared with PBS-treated controls” value was “significantly smaller; also recorded: smaller than controls”. In addition, the “primary tumor growth and metastases” value in data set [8] (mouse, in vivo) is “inhibited”. Also, in data set [8] (mouse, in vivo), the “surgical examination of the tumor sites” value is “no sign of tumor cells”. Besides, the skin toxicity entry in [9] is given as “relatively non-toxic to normal skin”.

Take `COc1cccc2c1C(=O)c1c(O)c3c(c(O)c1C2=O)C[C@@](O)(C(=O)CO)C[C@@H]3O[C@H]1C[C@H](N)[C@H](O)[C@H](C)O1` [doxorubicin, reference compound]: the “effect on KS1767 cell viability” value in [4] (20 μg/well, 24 h, in the presence of matrigel) is “decreased cell viability”. Also, in [4], the “effect on KS1767 cell layer” value is recorded as “damaged the cell layer”.

On to “DLSLARLATARLAI [negative control peptide, reference compound]”, for which the “effect on KS1767 cells” value in [3] (100 μM, 60 s) is recorded as “unaffected”; in data set [3] (100 μM, 24 h), “unaffected”; in data set [3] (100 μM, after 60 min), “unaffected”.

Turning to `CCO` [ethanol, reference compound], the “effect on KS1767 cells” value in [4] (in the presence of polymeric fibronectin (sFN)) was “induced massive cell death”. In addition, the “effect on KS1767 cell layer” value in [4] is “damaged the cell layer”.

B1: SGP-L: SGP variant SEQ ID NO:4; central all alanine helix replaced by an all leucine helix; negative control (peptide)
chain: LLLLLLWLLLLGPNGLKLYKKLLKKLLKLLGNPGLKLYKKLLKKLLLKLGNPGLLKLYKKLLKKLLKLL
Consider B1, for which the “ability to disrupt synthetic membranes” value in [2] is reported as “diminished”. Besides, the CC50 in data set [3], in [5] and in data set [13] was 60 µM throughout. Further, the “toxicity to mammalian cultured cells compared with SGP” value in data set [3] is recorded as “substantially less toxic”.

B2: SGP-E: SGP variant SEQ ID NO:3; lysines replaced by glutamic acids; negative control (peptide)
chain: AAAAAAWAAAAGNPGLELLKKLYKKLLELLGNPGLELLKKYLKKLLELLGNPGLLELLKKYLKKLLELL
With B2, the “ability to disrupt synthetic membranes” value in [2] is on record as “diminished”. For the same molecule, the CC50 in data set [3], in data set [5] and in [13] was 30 µM each time. The “toxicity to mammalian cultured cells compared with SGP” value in [3] is on record as “substantially less toxic”.
